This note sets out measurements from ChEMBL document CHEMBL3393030, “Synthesis and properties of vitamin E analog-conjugated neomycin for delivery of RNAi drugs to liver cells” (Bioorg Med Chem Lett, 2015).

Series [1] in a line: Binding affinity to self-complementary RNA-12mer duplex (5'-rCGCGAAUUCGCG-3')2 (unknown origin) assessed as melting temperature by […] assay (reference value: 61 degC). The settings on record: Homo sapiens.
The nature of series [2]: Drug uptake in mouse HePa1-6 cells assessed as red signal with Cy3 conjugate compound. The class given is ADME, cell-based.
Another series deals with RH7777. The experiment in a line: Induction of RNAi activity in rat McA-RH7777 cells by LDLR assay. The class given is cell-based.

Regarding `CCCCCCCC/C=C/CCCCCCCC(=O)Oc1c(C)c(C)c2c(c1C)CC[C@@](C)(CCCCCCCCCOCc1cn(CCCCCCCCCCCCCCCCSC[C@H]3O[C@@H](O[C@@H]4[C@@H](O)[C@H](N)C[C@H](N)[C@H]4O[C@H]4O[C@H](CN)[C@@H](O)[C@H](O)[C@H]4N)[C@H](O)[C@@H]3O[C@H]3O[C@@H](CN)[C@@H](O)[C@H](O)[C@H]3N)nn1)O2`, in series [1], the Tm (usually the temperature at which the thermal transition is half complete) turned out to be 66.8 °C. Moreover, the Drug uptake result in series [2] is listed as “Active”. For the same molecule, the Activity entry in the series with RH7777 is on record as “Toxic”.

Turning to `NC[C@@H]1O[C@H](O[C@H]2[C@@H](O)[C@H](O[C@@H]3[C@@H](O)[C@H](N)C[C@H](N)[C@H]3O[C@H]3O[C@H](CN)[C@@H](O)[C@H](O)[C@H]3N)O[C@@H]2CO)[C@H](N)[C@@H](O)[C@@H]1O`, the midpoint of thermal melting (Tm) in series [1] was found to be 64.2 °C.

In the case of `CCCCCCCCCCCCCCCCCC(=O)Oc1c(C)c(C)c2c(c1C)CC[C@@](C)(CCCCCCCCCOCc1cn(CCCCCCCCCCCCCCCCSC[C@H]3O[C@@H](O[C@@H]4[C@@H](O)[C@H](N)C[C@H](N)[C@H]4O[C@H]4O[C@H](CN)[C@@H](O)[C@H](O)[C@H]4N)[C@H](O)[C@@H]3O[C@H]3O[C@@H](CN)[C@@H](O)[C@H](O)[C@H]3N)nn1)O2`, the Tm in series [1] amounted to 65.6 °C.

As to `CCCCCCCCCCCCCCCCOC(COC[C@]1(C)CCc2c(C)c(O)c(C)c(C)c2O1)OCc1cn(CCCCCCCCCCCCCCCCSC[C@H]2O[C@@H](O[C@@H]3[C@@H](O)[C@H](N)C[C@H](N)[C@H]3O[C@H]3O[C@H](CN)[C@@H](O)[C@H](O)[C@H]3N)[C@H](O)[C@@H]2O[C@H]2O[C@@H](CN)[C@@H](O)[C@H](O)[C@H]2N)nn1` (stereo partly drawn), in series [1], the Tm was determined as 72.8 °C. In series [2], the Drug uptake entry was “Active”. The Activity entry in the series with RH7777 is listed as “Toxic”.
